{"source": "patent US20230095341A1", "about": "“COMPOSITIONS AND METHODS FOR TREATING NEURODEGENERATIVE, MYODEGENERATIVE, AND LYSOSOMAL STORAGE DISORDERS” (GEORGETOWN UNIVERSITY, priority 2020, published 2023)", "key": {"[1]": {"system": "B35 rat neuroblastoma cells", "experiment": "MTT assay, cell viability", "assay_type": "cell-based", "details": "5 hours, concentration given in the value", "description": "(§1) Rat neuroblastoma B35 cells were grown in Dulbecco's Modified Eagle's Medium (DMEM) with 10% Fetal Bovine Serum (FBS) and 1% penicillin/streptomycin and incubated at 37° C. with 5% CO2. For the experiments, cells were transferred to 12-well plates (Cat. #150628, ThermoFisher, Waltham, Mass.) and grown to at least 70% confluence. Transient transfection was performed with 3pg P301L tau (Cat. #30145, Addgene) cDNA or 3pg human a-synuclein cDNA using Fugene HD transfection reagent (Cat. #E2311, Promega, Madison Wis.) for 24 hours. Cells were treated with ImM, I00pM, 10pM, IpM, 0.lIM, 0.01pMl, and 0.001pM dissolved in DMSO or an equivalent SuL of DMSO for 5 hours. Cell culture media was collected and cells were harvested using sodium-tris, EDTA, NP-40 (STEN) buffer and centrifuged at 10,000×g for 20 minutes at 4′C and supernatant was collected. Cell viability was determined via lactate dehydrogenase assay (Cat. #88954, Thermofisher) and MTT assay (Cat. #V13154, Thennofisher). Protein was extracted by removing culture medium and adding 0.2 ml lx STEN buffer (50 mM Tris (pH 7.6), 150 mM NaCl, 2 mM EDTA, 0.2% NP-40, 0.2% BSA, 20 mM PMSF and protease cocktail inhibitor) to cell layer and incubated on ice for 10 minutes. The bottom of the well was scraped and allowed to incubate on ice for an additional 10 minutes. Cell lysates were collected, stored at -80° C., and used for additional analyses.\n(§2) Compound 1 (BK5018), Compound 2 (BK5026), Compound 3 (BK5029), Compound 4 (BD5040), Compound 6 (CL2-296). Compound 7 (CL-2-287-1) and Compound 8 (CL-2-287-2) with molecular weights of 284, 339.265, 264, 339, 269 and 247 gimol, respectively, were diluted in Dimethyl Sulfoxide (DMSO) to final concentrations of 100 pM, 10 µM, 1 pM, 0.1 pM, 0.01 pM, and 0.001 pM. Drugs were stored at −80° C.\nTo measure cell viability, cells were incubated with 500 pL of Dulbecco's Modified Eagle's Medium (DMEf) containing 50 pL of (3-[4,5-dimethylthiazol-2-yl]-2,5-diphenyl-tetrazolium bromide (ivT)) for 5 hours at 37° C. and 5% CO2. The media was aspirated so that 125 uL of media remained. The formazan salts were dissolved in 250 uL of DMSO. Absorbance was read against a blank containing 125 uL of media and MTT, and 250 uL of DMSO at 570 mn."}, "murine Tau": {"system": "murine Tau", "experiment": "Tau ELISA of whole brain lysates from A53T mice", "assay_type": "in vivo, mouse (A53T)", "details": "21 days, 12 month old A53T mice"}, "[2]": {"system": "B35 rat neuroblastoma cells", "experiment": "Lactate dehydrogenase (LDH) assay, cell toxicity", "assay_type": "cell-based", "details": "5 hours, concentration given in the value", "description": "as §1, §2\nCellular cytotoxicity was quantitatively measured by assessment of LDH, a cytosolic enzyme that is released from damaged cells into the cellular media, after exposure to the drug 5 hours after initial dosage. The cell culture media was collected, and an aliquot was coupled with a lactate and NAD+. LDH catalyzes the reaction that converts lactate into pyruvate to produce NADH. NADH, in turn, reduces a tetrazolium salt (NT) into a red fornazan product. The amount of LDH in the media is proportional to the amount of formazan which was measured at 490 nn. The absorbance at 680 nm, to measure the background signal from the instrument, was subtracted from the absorbance at 490 nm to calculate the LDH activity. CelfCulture"}, "[3]": {"system": "alpha-synuclein in a-synuclein-transfected B35 rat neuroblastoma cells", "experiment": "Reduction of alpha-synuclein in a-synuclein-transfected B35 cells", "assay_type": "cell-based, rat cells transfected with human a-synuclein cDNA", "details": "treatment for five hours with 100aM, lOuM and luM concentrations", "description": "as §1\nTo perform transient transfection of a-synuclein into the rat neuroblastoma B35 cells FuGene@ HD Transfection Reagent (Promega Corporation, Madison, Wis.) was used. Cells were grown in 12-well dishes. A mixture containing 12 pg of cDNA, 540 pg of DMEM containing 2% FBS, and 60 pd of FuGene@ HD Transfection Reagent was incubated for 10 minutes. The cells were treated with 50 pl of the FuGeneC HD Transfection Reagent/DNA mixture for 24 hours. Cells were harvested after transfection, media was aspirated, the cells were treated with 200ul of Sodium Tris EDTA NP40 (STEN) lysis buffer then scraped off the plate and collected into a 1.5 ml centrifiuge tube."}, "[4]": {"system": "Tauopathy rTG4510 mice expressing human P301L tau", "experiment": "Overnight nest shredding (nesting) behavior", "assay_type": "in vivo, mouse", "details": "10 mg/kg, 3 weeks, vs DMSO (Kruskal-Wallis P=0.01), rTG4510 mice", "description": "Tauopathy rTG4510 mice (i.e., a mouse model that clinically manifest a tauopathy), expressing human P301L tau driven by a CAMrII promoter, approximately 9-12 months old, were treated intraperitoneally (I.P.) for 21 consecutive days, […], or Dimethyl sulfoxide (DMSO) (n=7).\nThen, blinded, independent observers reviewed images of the overnight shredding and the average quality scores were calculated.\nFor nest shredding, Mann-Whitney analysis was used within groups, between timepoints, and Kruskal-Wallis analysis was used between treatment groups. For open-field studies, : ordinary one-way ANOVA or Student's I test was used. […]\nBlinded independent observers reviewed images of the overnight shredding and the average quality scores were calculated."}, "[5]": {"details": "2.5 mg/kg, 5 mg/kg and 10 mg/kg I.P."}}, "note": "Values joined by “and” are separate entries in the source; they are usually repeats but may differ in a detail not shown here. Identical values can stand only once. “Also recorded” adds a separate entry of the source.", "data": [{"smiles": "COc1cccc(Nc2ccnc3cc(Cl)ccc23)c1", "note": "[BK5018, 7-Chloro-N-(3-methoxyphenyl)quinoin-4-amine]", "values": [{"measurement": "cell toxicity, as measured by MTT assay", "setting": "[1]", "result": "no concentration of BK5018 displayed increased toxicity"}, {"measurement": "murine Tau in whole brain lysates", "setting": "murine Tau; 2.5 mg/kg and 10 mg/kg I.P.", "result": "significant reduction"}, {"measurement": "cell toxicity, as measured by LDH assay", "setting": "[2]", "result": "100aM and luM of BK5018 displayed increased levels of LDH and 100 uM and luM of BK5018 displayed increased toxicity"}]}, {"smiles": "Cc1cccc(Nc2cc(Nc3cccc(C)c3)c3ccccc3n2)c1", "note": "[BK5026, N^2,N^4-Di-m-tolyquinoline-2,4-diamine]", "values": [{"measurement": "cell toxicity, as measured by MTT assay", "setting": "[1]", "result": "OOuM concentrations ofBK5026 displayed increased levels of cell toxicity"}, {"measurement": "cell toxicity, as measured by LDH assay", "setting": "[2]", "result": "lOOuM and 1OuM concentrations of BK5026 displayed increased levels of cell toxicity and 100 uM"}]}, {"smiles": "COc1ccc2nccc(Oc3ccc(C)cc3)c2c1", "note": "[BK5029, 6-Methoxy-4-(p-tolyloxy)quinoUne]", "values": [{"measurement": "level of alpha-synuclein", "setting": "[3]", "result": "none of the compounds significantly reduced the level of alpha-synuclein; also recorded: do not significantly reduce"}, {"measurement": "cell toxicity, as measured by MTT assay", "setting": "[1]", "result": "low doses of BK5029 displayed increased toxicity"}, {"measurement": "murine Tau in whole brain lysates", "setting": "murine Tau; [5]", "result": "significant reduction"}, {"measurement": "cell toxicity, as measured by LDH assay", "setting": "[2]", "result": "low doses of BK5029 displayed increased toxicity"}]}, {"smiles": "COc1ccc2nccc(Nc3cccc(C)c3)c2c1", "note": "[BK5030, 6-Methoxy-N-(m-toIyl)quinolin-4-amine]", "values": [{"measurement": "level of alpha-synuclein", "setting": "[3]", "result": "none of the compounds significantly reduced the level of alpha-synuclein; also recorded: do not significantly reduce"}, {"measurement": "cell toxicity, as measured by MTT assay", "setting": "[1]", "result": "no concentration of BK5030 displayed increased toxicity"}, {"measurement": "cell toxicity, as measured by LDH assay", "setting": "[2]", "result": "no concentration of BK5030 displayed increased toxicity"}]}, {"smiles": "Cc1cccc(Nc2ccc3c(Nc4cccc(C)c4)nccc3c2)c1", "note": "[CL2-296, N^4,N^6—Di-m-tolylisoquinoline-1,6-diamine]", "values": [{"measurement": "level of alpha-synuclein", "setting": "[3]", "result": "none of the compounds significantly reduced the level of alpha-synuclein; also recorded: do not significantly reduce"}, {"measurement": "cell toxicity, as measured by MTT assay", "setting": "[1]", "result": "no concentration of CL2-296 displayed increased cell toxicity"}, {"measurement": "murine Tau in whole brain lysates", "setting": "murine Tau; [5]", "result": "significant reduction"}, {"measurement": "cell toxicity, as measured by LDH assay", "setting": "[2]", "result": "100 uM and IOuM concentrations of CL2-296 displayed decreased levels of LDH and no other concentration of CL2-296 displayed increased cell toxicity and 100luM and 10 uM concentrations of CL2-296 displayed decreased levels of LDH"}]}, {"smiles": "CC(C)(C)c1ccccc1Nc1ccccc1C(=O)O", "note": "[CL-2-287-1, 2-((2-(tert-Buty)phenyl)amino)benzoic adid]", "values": [{"measurement": "cell toxicity, as measured by MTT assay", "setting": "[1]", "result": "at 100lM or less did not show increased cell toxicity"}, {"measurement": "nesting mean difference scores", "setting": "[4]; listed as CL287-1", "result": "significantly different"}, {"measurement": "nesting mean difference scores", "setting": "[4]; listed as CL-287-1", "result": "significantly improved nesting behavior"}, {"measurement": "cell toxicity, as measured by LDH assay", "setting": "[2]", "result": "at 100 uM or less did not show increased cell toxicity"}]}]}
